# Laboratory results published in patent publication US8288552B2, “Dihydropyridone amidesas P2X7 modulators” (Roche Palo Alto LLC, priority 2008, dated 2012).
# Biological target: T1, P2X7 (UniProt Q99572)
# T1 sequence (Q99572 1-595): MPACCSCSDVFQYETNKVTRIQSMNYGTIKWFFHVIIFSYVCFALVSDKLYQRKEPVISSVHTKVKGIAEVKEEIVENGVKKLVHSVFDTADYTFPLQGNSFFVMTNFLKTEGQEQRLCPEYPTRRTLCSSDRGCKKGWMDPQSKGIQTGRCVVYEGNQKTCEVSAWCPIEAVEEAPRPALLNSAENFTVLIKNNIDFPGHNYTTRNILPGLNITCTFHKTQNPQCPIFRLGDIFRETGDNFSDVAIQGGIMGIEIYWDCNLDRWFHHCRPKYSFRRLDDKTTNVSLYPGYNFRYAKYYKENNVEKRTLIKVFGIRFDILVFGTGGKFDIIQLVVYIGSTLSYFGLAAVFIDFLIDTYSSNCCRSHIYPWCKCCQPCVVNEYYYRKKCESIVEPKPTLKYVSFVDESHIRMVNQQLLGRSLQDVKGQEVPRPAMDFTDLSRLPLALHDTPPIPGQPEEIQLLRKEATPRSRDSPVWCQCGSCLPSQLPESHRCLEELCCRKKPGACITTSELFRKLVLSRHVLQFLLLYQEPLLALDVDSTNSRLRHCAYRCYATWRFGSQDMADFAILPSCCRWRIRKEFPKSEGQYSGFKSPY
# Assay: P2X7 pKi of Table 1
# Format: cell-based
# Procedure: Intracellular Calcium Flux (FLIPR) Assay
# Compound and Reagent Preparation
# Stock solutions of compounds were prepared from powders as a 10 mM DMSO stock solution. These solutions were stored at RT during the two week period of these experiments to prevent freeze-thaw of the DMSO stocks. The DMSO stocks were added to the appropriate assay buffer at a concentration of 10 μM, and then diluted serially to the final concentrations that were tested. […] The aqueous solutions of compounds as well as ATP (Sigma A7699) and BzATP (Sigma B6396) were prepared fresh for each day of experiment.
# 1321N1 cells stably expressing the full length human P2X7 gene (1321N1-hP2X7) and HEK293 cells stably expressing the full length rat P2X7 gene (HEK293-rP2X7) were obtained from the Roche Cell Culture Facility. 1321N1-hP2X7 cells were grown in Dulbecco's Modified Eagle's Medium (DMEM) high glucose supplemented with 10% FBS and 250 μg/mL G418. HEK293-rP2X7 cells were grown in DMEM/F-12 supplemented with 10% FBS, 1 mM CaCl2, 2 mM MgCl2, 2 mM L-Glutamine and 500 μg/ml G418. Cells were split such that they never became >70% confluent.
# Intracellular Calcium Flux (FLIPR)
# On the day prior to the experiment, 1321N1-hP2X7 or HEK293-rP2X7 cells were released into suspension with calcium-free PBS+Versene and washed by centrifugation with calcium-free PBS to remove the Versene. Cells were resuspended in growth medium at a density of 2.5×10^5 cells/mL and seeded into black walled, clear bottom 96 well plates (50,000 cells/well) approximately 18 hr prior to intracellular calcium flux experiments.
# On the day of the experiment, plates were washed with FLIPR buffer (calcium- and magnesium-free Hank's Balanced Salt Solution (HBSS) supplemented with 10 mM Hepes, 2.5 mM probenecid and 2 mM calcium chloride) using a BIO-TEK 96 channel plate washer and incubated with […] fluo-3 dye at 37° C. for one hr. The dye was then removed by plate washing and the cells were allowed to equilibrate for 20 min at room temperature with antagonist or vehicle (FLIPR buffer). Agonist (100 μM BzATP final concentration for hP2X7; 5 μM BzATP final concentration or rP2X7) was added online with the FLIPR and fluorescence measurements made at 1 sec intervals for 60 sec followed by 3 sec intervals for a further 4 min (5 min total). A final addition of 5 μM ionomycin was made and the maximal BzATP-evoked fluorescence normalized to the maximal ionomycin-evoked fluorescence.
row,pKi,SMILES
1,8.045,"COc1cc(Br)c(NC(=O)C2=CNC(=O)C[C@H]2c2cccc(F)c2)cc1OC [Compound 30, (S)-4-(3-Fluoro-phenyl)-6-oxo-1,4,5,6-tetrahydro-pyridine-3-carboxylic acid(2-bromo-4,5-dimethoxy-phenyl)-amide]"
2,6.525,"COc1cc(Br)c(NC(=O)C2=CN(C)C(=O)CC2c2ccc(F)cc2)cc1OC (centres unmarked) [Compound 31, 4-(4-Fluoro-phenyl)-1-methyl-6-oxo-1,4,5,6-tetrahydro-pyridine-3-carboxylic acid(2-bromo-4,5-dimethoxy-phenyl)-amide]"
3,7.98,"COc1cc(C)c(NC(=O)C2=CNC(=O)CC2c2ccc(F)cc2)cc1OC (centres unmarked) [Compound 32, 4-(4-Fluoro-phenyl)-6-oxo-1,4,5,6-tetrahydro-pyridine-3-carboxylic acid(4,5-dimethoxy-2-methyl-phenyl)-amide]"
4,7.195,"COc1cc(NC(=O)C2=CNC(=O)C[C@H]2c2cccc(F)c2)c(Br)cc1C [Compound 33, (S)-4-(3-Fluoro-phenyl)-6-oxo-1,4,5,6-tetrahydro-pyridine-3-carboxylic acid(2-bromo-5-methoxy-4-methyl-phenyl)-amide]"
5,6.9783,"COc1cc(Br)c(NC(=O)C2=CNC(=O)C[C@@H]2c2cccc(F)c2)cc1OC [Compound 34, (R)-4-(3-Fluoro-phenyl)-6-oxo-1,4,5,6-tetrahydro-pyridine-3-carboxylic acid(2-bromo-4,5-dimethoxy-phenyl)-amide]"
6,6.65,"COc1cc(NC(=O)C2=CNC(=O)CC2c2cccc(F)c2)c(Br)cc1F (centres unmarked) [Compound 35, 4-(3-Fluoro-phenyl)-6-oxo-1,4,5,6-tetrahydro-pyridine-3-carboxylic acid(2-bromo-4-fluoro-5-methoxy-phenyl)-amide]"
7,6.93,"Cc1ccc(C)c(NC(=O)C2=CNC(=O)CC2c2ccc(F)cc2)c1 (centres unmarked) [Compound 36, 4-(4-Fluoro-phenyl)-6-oxo-1,4,5,6-tetrahydro-pyridine-3-carboxylic acid(2,5-dimethyl-phenyl)-amide]"
8,7.12,"Cc1cccc(NC(=O)C2=CNC(=O)CC2c2ccc(F)cc2)c1C (centres unmarked) [Compound 37, 4-(4-Fluoro-phenyl)-6-oxo-1,4,5,6-tetrahydro-pyridine-3-carboxylic acid(2,3-dimethyl-phenyl)-amide]"
9,6.87,"Cc1ccc(Br)c(NC(=O)C2=CNC(=O)CC2c2ccc(F)cc2)c1 (centres unmarked) [Compound 38, 4-(4-Fluoro-phenyl)-6-oxo-1,4,5,6-tetrahydro-pyridine-3-carboxylic acid(2-bromo-5-methyl-phenyl)-amide]"
10,6.99,"COc1cc(Br)c(NC(=O)C2=CNC(=O)C[C@@H]2c2ccc(F)cc2)cc1OC [Compound 39, (R)-4-(4-Fluoro-phenyl)-6-oxo-1,4,5,6-tetrahydro-pyridine-3-carboxylic acid(2-bromo-4,5-dimethoxy-phenyl)-amide]"
11,7.895,"COc1cc(Br)c(NC(=O)C2=CNC(=O)C[C@H]2c2ccc(F)cc2)cc1OC [Compound 40, (S)-4-(4-Fluoro-phenyl)-6-oxo-1,4,5,6-tetrahydro-pyridine-3-carboxylic acid(2-bromo-4,5-dimethoxy-phenyl)-amide]"
12,7.225,"COc1cc(C)c(NC(=O)C2=CNC(=O)C[C@@H]2c2ccc(F)cc2)cc1OC [Compound 41, (R)-4-(4-Fluoro-phenyl)-6-oxo-1,4,5,6-tetrahydro-pyridine-3-carboxylic acid (4,5-dimethoxy-2-methyl-phenyl)-amide]"
13,7.993,"COc1cc(C)c(NC(=O)C2=CNC(=O)C[C@H]2c2ccc(F)cc2)cc1OC [Compound 42, (S)-4-(4-Fluoro-phenyl)-6-oxo-1,4,5,6-tetrahydro-pyridine-3-carboxylic acid (4,5-dimethoxy-2-methyl-phenyl)-amide]"
14,5.875,"COc1cc(Br)c(NC(=O)C2=CN(C)C(=O)C[C@H]2c2ccc(F)cc2)cc1OC [Compound 44, (S)-4-(4-Fluoro-phenyl)-1-methyl-6-oxo-1,4,5,6-tetrahydro-pyridine-3-carboxylic acid(2-bromo-4,5-dimethoxy-phenyl)-amide]"
15,6.765,"COc1ccc(C)c(NC(=O)C2=CNC(=O)C[C@@H]2c2cccc(F)c2)c1 [Compound 45, (R)-4-(3-Fluoro-phenyl)-6-oxo-1,4,5,6-tetrahydro-pyridine-3-carboxylic acid(5-methoxy-2-methyl-phenyl)-amide]"
16,7.695,"COc1ccc(C)c(NC(=O)C2=CNC(=O)C[C@H]2c2cccc(F)c2)c1 [Compound 46, (S)-4-(3-Fluoro-phenyl)-6-oxo-1,4,5,6-tetrahydro-pyridine-3-carboxylic acid(5-methoxy-2-methyl-phenyl)-amide]"
17,7.7225,"COc1cc(C)c(NC(=O)C2=CNC(=O)C[C@H]2c2cccc(F)c2)cc1OC [Compound 48, (S)-4-(3-Fluoro-phenyl)-6-oxo-1,4,5,6-tetrahydro-pyridine-3-carboxylic acid (4,5-dimethoxy-2-methyl-phenyl)-amide]"
18,7.48,"Cc1cc(C)c(Br)c(NC(=O)C2=CNC(=O)CC2c2ccc(F)cc2)c1 (centres unmarked) [Compound 49, 4-(4-Fluoro-phenyl)-6-oxo-1,4,5,6-tetrahydro-pyridine-3-carboxylic acid(2-bromo-3,5-dimethyl-phenyl)-amide]"
19,6.89,"Cc1ccc(C(F)(F)F)cc1NC(=O)C1=CNC(=O)CC1c1cccc(F)c1 (centres unmarked) [Compound 50, 4-(3-Fluoro-phenyl)-6-oxo-1,4,5,6-tetrahydro-pyridine-3-carboxylic acid(2-methyl-5-trifluoromethyl-phenyl)-amide]"
20,7.445,"Cc1ccc(C(C)C)cc1NC(=O)C1=CNC(=O)CC1c1cccc(F)c1 (centres unmarked) [Compound 51, 4-(3-Fluoro-phenyl)-6-oxo-1,4,5,6-tetrahydro-pyridine-3-carboxylic acid(5-isopropyl-2-methyl-phenyl)-amide]"
21,6.02,"CCN(CC)S(=O)(=O)c1ccc(Cl)c(NC(=O)C2=CNC(=O)CC2c2cccc(F)c2)c1 (centres unmarked) [Compound 52, 4-(3-Fluoro-phenyl)-6-oxo-1,4,5,6-tetrahydro-pyridine-3-carboxylic acid(2-chloro-5-diethylsulfamoyl-phenyl)-amide]"
22,6.83,"O=C1CC(c2cccc(F)c2)C(C(=O)Nc2cccc3c2CCCC3)=CN1 (centres unmarked) [Compound 53, 4-(3-Fluoro-phenyl)-6-oxo-1,4,5,6-tetrahydro-pyridine-3-carboxylic acid(5,6,7,8-tetrahydro-naphthalen-1-yl)-amide]"
23,7.02,"COc1cc(NC(=O)C2=CNC(=O)CC2c2ccc(F)cc2)c(C)cc1F (centres unmarked) [Compound 54, 4-(4-Fluoro-phenyl)-6-oxo-1,4,5,6-tetrahydro-pyridine-3-carboxylic acid(4-fluoro-5-methoxy-2-methyl-phenyl)-amide]"
24,7.535,"Cc1ccc(C)c(NC(=O)C2=CNC(=O)C[C@@H]2c2ccc(F)cc2)c1 [Compound 55, (R)-4-(4-Fluoro-phenyl)-6-oxo-1,4,5,6-tetrahydro-pyridine-3-carboxylic acid (2,5-dimethyl-phenyl)-amide]"
25,6.56,"Cc1ccc(C)c(NC(=O)C2=CNC(=O)C[C@H]2c2ccc(F)cc2)c1 [Compound 56, (S)-4-(4-Fluoro-phenyl)-6-oxo-1,4,5,6-tetrahydro-pyridine-3-carboxylic acid (2,5-dimethyl-phenyl)-amide]"
26,7.405,"Cc1cccc(NC(=O)C2=CNC(=O)C[C@@H]2c2ccc(F)cc2)c1C [Compound 57, (R)-4-(4-Fluoro-phenyl)-6-oxo-1,4,5,6-tetrahydro-pyridine-3-carboxylic acid (2,3-dimethyl-phenyl)-amide]"
